Assay results taken from patent US20210299079A1, “MONOMETHYL FUMARATE-CARRIER CONJUGATES AND METHODS OF THEIR USE” (Flagship Pioneering Innovations V, Inc., priority 2018, published 2021).

Assays:
Type in all cases: cell-based
[1] = system: IL-8; experiment: Neutrophil Chemokine Production Assay: IL-8; conditions: human neutrophils, 12 h
Method: (§1) A volume 25 mL of human blood was layered over 15 mL of Histopaque®-1077 and centrifuged at 500 g, R^T, for 30 min with no break applied to the centrifuge. The PBMC band and Histopaque®-1077 layer were removed leaving behind the bottom red layer which was mixed with 40 mL of 1× red blood cell (RBC) lysis buffer (Sigma-Aldrich) was and split into two 50 mL tubes. The volume for both fractions was brought to 50 mL with RBC lysis buffer, mixed by inversion, and then incubated at RT for 10 min. Solutions were centrifuged at 250 g, for 10 min at RT and the supernatant liquids removed. The reddish pellets were re-suspended in 1 mL of RBC lysis buffer and combined. The cell suspension was incubated for 5 min at RT in RBC lysis buffer. After incubation 45 mL of Hanks Balanced Salt Solution with no calcium, magnesium or phenol red (HBSS—) was added, the cell suspension was spun (250 g for 10 min at RT), and supernatant liquids were removed. The white pellet was re-suspended in 1 mL of HBSS—, and cell counts were determined. The neutrophil cell suspension was brought to a concentration of 1.11e6 cells/mL in RPMI complete (Sigma-Aldrich), and 180 μL of cell suspension was transferred to all wells within a sterile 96-well tissue culture treated plate resulting in 2.0×10^5 cells/well. […] After incubation, 10 μL of 2 μg/mL LPS solution in RPMI complete was added to each well except for control wells, which received an additional 10 μL of media. Cells were incubated for 12 h (37° C., 5% CO2), after which plates were centrifuged at 250 g, RT, for 5 min and supernatant liquids were obtained and stored at −80° C. until analyzed via Luminex® Multiplex Assay for various chemokines and cytokines. Three data points were acquired from two different blood donors and averaged.

[2] = system: MIP-1α; experiment: Neutrophil Chemokine Production Assay: MIP-1α; conditions: human neutrophils, 12 h
Method: as §1

[3] = system: MIP-1β; experiment: Neutrophil Chemokine Production Assay: MIP-1β; conditions: human neutrophils, 12 h
Method: as §1

[4] = system: Caco-2 colonocytes; experiment: Human Caco-2 Barrier Integrity Assay, Study 1; conditions: Caco-2, + cytokines (TNFα, IFNγ, IL-1β), 48 hours
Method: Caco-2 colonocytes were maintained at 37° C. and 5% CO2 in Dulbecco's Modified Eagle Medium (DMEM) and supplemented with 10% FBS, 1% NEAA, 1% penicillin-streptomycin. At 70-80% confluency, cells were trypsinized and seeded in 0.4 cm^2 transwell collagen I coated membranes with supplemented DMEM in both apical and basolateral compartments. […] After 48 hours, TEER readings were taken again and viability was measured by CellTiter 96® AQueous One Solution Cell Proliferation Assay (Promega).

[5] = system: naïve CD4+ T cells; experiment: Human Regulatory T Cell Differentiation Assay; conditions: 6 days; for Cell viability % DMSO: viability dye; for activity at 500 µM: IL-2, 0.5 mM
Method: Peripheral blood mononuclear cells (PBMCs) from whole blood donated by health volunteers were separated by Ficoll-Paque gradient centrifugation and naïve CD4^+ T cells were subsequently isolated using magnet beads (EasySep™ Human Naïve CD4^+ T Cell Isolation Kit, Cambridge, Mass.). For regulatory T cell (Treg) differentiation assay, naïve CD4^+ T cells were cultured (1-10×10^4 cells) in CTS OpTmizer medium for 6 days and stimulated with 5 ng/ml TGF-β, 100 U/ml IL-2, and ImmunoCult™ Human […] T Cell Activator; Stemcell #10990) with/without our Compounds. Cell viability was determined using a viability dye (eBioscience Fixable Viability Dye eFluor 780: ThermoFisher 65-0865-14) at 1:500 dilution. The cells were gated for Treg, defined as Live, CD11c^−, CD14^−, CD19^−, CD8^−, CD4^+, CD3^+, CD25^+, FOXP3^+. Percent (%) Tregs were calculated as percentage of CD4^+, CD25^+, FOXP3^+ cells over total CD4^+ T cells. Statistical analysis was performed with GraphPad Prism Software Using One-Way ANOVA.

[6] = system: TNFα; experiment: Cytokine Release from Human PBMCs: TNFα; conditions: LPS, 24 hours, Concentration 100 μM
Method: (§2) Human donor blood (8 mL) was collected in sodium citrate CPT tubes and centrifuged at 1,600×g for 20 minutes at room temperature. Buffy coat containing PBMCs was collected and transferred to a 50 mL conical tube containing 30 mL of RPMI-1640 medium at room temperature (supplemented with penicillin-streptomycin). PBMCs samples were centrifuged at 400×g for 10 minutes at 10° C. The pelleted PBMCs were washed twice in 10 ml of RPMI-1640 medium (supplemented with penicillin-streptomycin), then resuspended in RPMI-1640 medium (supplemented with penicillin-streptomycin, fetal bovine serum, and L-Glutamine). PBMCs were filtered through a 70 micron mesh to remove any cellular debris. […] PBMCs in a 96-well plate were rested for 30 minutes in a 37° C., 5% CO2 incubator, then subsequently treated with 10 μI of indicated compound. After 2 hours 10 μL of LPS (0111:64) 1 mg/mL was added to test wells. After 24 hours of incubation at 37° C., 5% CO2, 100 μL of cell supernatant was collected and transferred to a 96-well plate (non-tissue treated, flat bottom). The plate was centrifuged at 350×g for 5 minutes at room temperature, and then the clear supernatant transferred to a new 96-well plate (non-tissue treated, flat bottom). The remaining cells were tested for viability using CellTiter-Glo® Luminescent Cell Viability Assay (Promega). The supernatant was analyzed for TNFα, IL-6 and IL-1β (kit […] Systems), using Luminex Immunoassay Technology (MAGPIX System).

[7] = system: IL-6; experiment: Cytokine Release from Human PBMCs: IL-6; conditions: LPS, 24 hours, Concentration 100 μM
Method: as §2

[8] = system: IL-1β; experiment: Cytokine Release from Human PBMCs: IL-1β; conditions: LPS, 24 hours, Concentration 100 μM
Method: as §2

[9] = Homo sapiens, 144 h, TGF-β, read-out: Treg induction % DMSO

Row | SMILES | % IL-8 (Vehicle + LPS = 100%) ([1]; Conc. 500.0 μM) | % MIP-1α (Vehicle + LPS = 100%) ([2]; Conc. 500.0 μM) | % MIP-1β (DMSO + LPS = 100%) ([3]; Conc. 500.0 μM) | Cell viability % DMSO ([5]; 0.5 mM) | activity at 500 µM [5, 9] | TNFα % of DMSO control [6] | IL6 % DMSO control [7] | IL1β % DMSO control [8] | % IL-8 (Vehicle + LPS = 100%) ([1]; Conc. 1000.0 μM) | % MIP-1α (Vehicle + LPS = 100%) ([2]; Conc. 1000.0 μM) | % MIP-1β (DMSO + LPS = 100%) ([3]; Conc. 1000.0 μM) | % Change in TEER from DMSO ([4]; 1 mM) | % Change in TEER from DMSO ([4]; 3 mM) | also measured
1 | C[C@@H](O)CCO [(R) 1,3-butanediol] | − (− = >90% Vehicle) | − (− = >90% Vehicle) | + (+ = <90% Vehicle) | = (90% > <110%: =) | 90 to 110% | = ((=) 90% > <110% DMSO) | = ((=) 90% > <110% DMSO) | = ((=) 90% > <110% DMSO) | – | – | – | – | – | % IL-8 (Vehicle + LPS = 100%) ([1]; Conc. 100.0 μM): − (− = >90% Vehicle); % MIP-1α (Vehicle + LPS = 100%) ([2]; Conc. 100.0 μM): − (− = >90% Vehicle); % MIP-1β (DMSO + LPS = 100%) ([3]; Conc. 100.0 μM): + (+ = <90% Vehicle); % Change in TEER from DMSO ([4]; 100 μM): − (<125%: −); % Change in TEER from DMSO ([4]; 0.5 mM): − (<125%: −); Cell viability % DMSO ([5]; 100 μM): = (90% > <110%: =); activity at 100 µM ([5]; Homo sapiens, 144 h, TGF-β, IL-2, 100 μM, read-out: Treg induction % DMSO): 90 to 110%
2 | CC(O)CC(=O)O (stereo not drawn) [β-hydroxybutyrate] | – | – | – | – | – | − ((−) >110% DMSO) | = ((=) 90% > <110% DMSO) | − ((−) >110% DMSO) | – | – | – | – | – | % Change in TEER from DMSO ([4]; 200 μM): + (125% > <150%: +); % Change in TEER from DMSO ([4]; 2 mM): − (<125%: −)
3 | CCCC(=O)O [butyrate] | ++ (++ = <70% Vehicle) | +++ (+++ = <50% Vehicle) | +++ (+++ = <50% Vehicle) | – | – | ++ ((++) <50% DMSO) | + ((+) 50% > <90% DMSO) | − ((−) >110% DMSO) | ++ (++ = <70% Vehicle) | +++ (+++ = <50% Vehicle) | +++ (+++ = <50% Vehicle) | − (<125%: −) | − (<125%: −) | % Change in TEER from DMSO ([4]; 5 mM): ++ (150% > <200%: ++)
4 | O=c1c(O)c(-c2ccc(O)c(O)c2)oc2cc(O)cc(O)c12 [quercetin] | – | – | – | – | – | + ((+) 50% > <90% DMSO) | + ((+) 50% > <90% DMSO) | + ((+) 50% > <90% DMSO) | – | – | – | – | – | % IL-8 (Vehicle + LPS = 100%) ([1]; Conc. 0.1 μM): − (− = >90% Vehicle); % IL-8 (Vehicle + LPS = 100%) ([1]; Conc. 1.0 μM): − (− = >90% Vehicle); % MIP-1α (Vehicle + LPS = 100%) ([2]; Conc. 0.1 μM): − (− = >90% Vehicle); % MIP-1α (Vehicle + LPS = 100%) ([2]; Conc. 1.0 μM): − (− = >90% Vehicle); % MIP-1β (DMSO + LPS = 100%) ([3]; Conc. 0.1 μM): − (− = >90% Vehicle); % MIP-1β (DMSO + LPS = 100%) ([3]; Conc. 1.0 μM): − (− = >90% Vehicle); % Change in TEER from DMSO ([4]; 100 nM): − (<125%: −); % Change in TEER from DMSO ([4]; 1 μM): + (125% > <150%: +); Cell viability % DMSO ([5]; 100 nM): = (90% > <110%: =); Cell viability % DMSO ([5]; 1 μM): = (90% > <110%: =); activity at 0.1 µM ([5]; Homo sapiens, 144 h, TGF-β, IL-2, 100 nM, read-out: Treg induction % DMSO): 90 to 110%; activity at 1 µM ([5]; Homo sapiens, 144 h, TGF-β, IL-2, 1 μM, read-out: Treg induction % DMSO): 90 to 110%
5 | O=C[C@H](O)[C@@H](O)[C@@H](O)CO [L-arabinose] | − (− = >90% Vehicle) | − (− = >90% Vehicle) | − (− = >90% Vehicle) | = (90% > <110%: =) | 90 to 110% | + ((+) 50% > <90% DMSO) | + ((+) 50% > <90% DMSO) | = ((=) 90% > <110% DMSO) | − (− = >90% Vehicle) | − (− = >90% Vehicle) | − (− = >90% Vehicle) | – | – | Cell viability % DMSO ([5]; 1 mM): = (90% > <110%: =); activity at 1000 µM ([5]; Homo sapiens, 144 h, TGF-β, IL-2, 1 mM, read-out: Treg induction % DMSO): 90 to 110%
6 | CC(=O)O [acetate] | − (− = >90% Vehicle) | + (+ = <90% Vehicle) | + (+ = <90% Vehicle) | – | – | = ((=) 90% > <110% DMSO) | = ((=) 90% > <110% DMSO) | = ((=) 90% > <110% DMSO) | − (− = >90% Vehicle) | ++ (++ = <70% Vehicle) | + (+ = <90% Vehicle) | − (<125%: −) | − (<125%: −) | % IL-8 (Vehicle + LPS = 100%) ([1]; Conc. 3000.0 μM): +++ (+++ = <50% Vehicle); % MIP-1α (Vehicle + LPS = 100%) ([2]; Conc. 3000.0 μM): +++ (+++ = <50% Vehicle); % MIP-1β (DMSO + LPS = 100%) ([3]; Conc. 3000.0 μM): +++ (+++ = <50% Vehicle)
